From patent publication US20040224942A1 (priority 2003, published 2004)
Where “and” joins values, the source holds several entries; their conditions need not be identical. Identical values can stand only once. Like-named read-outs stand apart in the source and are kept apart here.

Tests used:
[1] = target: T1, M5 muscarinic receptor (Homo sapiens, UniProt P08912); assay: R-SAT functional receptor assay, M5; format: cell-based; settings: for Emax: read-out: % Efficacy M5; for % Efficacy M5: relative to full agonist carbachol
T1 construct: expressed in transfected cells
T1 sequence (P08912 1-532): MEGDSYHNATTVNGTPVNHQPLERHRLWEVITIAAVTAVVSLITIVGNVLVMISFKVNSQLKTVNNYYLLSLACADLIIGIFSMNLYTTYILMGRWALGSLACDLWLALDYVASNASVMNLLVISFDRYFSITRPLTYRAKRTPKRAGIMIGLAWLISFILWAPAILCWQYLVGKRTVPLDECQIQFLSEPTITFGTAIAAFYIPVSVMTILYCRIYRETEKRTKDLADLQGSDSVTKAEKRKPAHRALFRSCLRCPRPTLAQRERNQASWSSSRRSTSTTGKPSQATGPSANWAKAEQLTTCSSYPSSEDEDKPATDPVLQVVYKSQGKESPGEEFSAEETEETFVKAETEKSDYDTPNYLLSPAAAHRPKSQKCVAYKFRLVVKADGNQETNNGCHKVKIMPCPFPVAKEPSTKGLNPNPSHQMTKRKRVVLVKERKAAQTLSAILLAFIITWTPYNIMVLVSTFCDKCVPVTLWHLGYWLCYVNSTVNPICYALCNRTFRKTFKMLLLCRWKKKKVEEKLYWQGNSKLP

[2] = target: T2, M4 muscarinic receptor (Homo sapiens, UniProt P08173); assay: cell-based; settings: read-out: % Efficacy M4
T2 sequence (P08173 1-479): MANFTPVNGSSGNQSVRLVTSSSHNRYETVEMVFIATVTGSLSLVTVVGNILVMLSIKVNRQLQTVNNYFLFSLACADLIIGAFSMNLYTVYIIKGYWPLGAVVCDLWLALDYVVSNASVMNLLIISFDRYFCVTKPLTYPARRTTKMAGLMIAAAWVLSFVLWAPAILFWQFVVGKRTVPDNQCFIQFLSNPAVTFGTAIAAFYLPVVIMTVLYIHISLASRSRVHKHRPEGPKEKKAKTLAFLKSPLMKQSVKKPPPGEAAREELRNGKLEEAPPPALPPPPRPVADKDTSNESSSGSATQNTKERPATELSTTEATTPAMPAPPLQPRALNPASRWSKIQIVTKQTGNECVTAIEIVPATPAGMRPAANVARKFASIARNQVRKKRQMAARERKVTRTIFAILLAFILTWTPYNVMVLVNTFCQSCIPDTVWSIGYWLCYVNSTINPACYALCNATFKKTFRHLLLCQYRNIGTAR

[3] = target: T3, M2 muscarinic receptor (Homo sapiens, UniProt P08172); assay: R-SAT functional receptor assay, M2; settings: for Emax: read-out: % Efficacy M2
T3 sequence (P08172 1-466): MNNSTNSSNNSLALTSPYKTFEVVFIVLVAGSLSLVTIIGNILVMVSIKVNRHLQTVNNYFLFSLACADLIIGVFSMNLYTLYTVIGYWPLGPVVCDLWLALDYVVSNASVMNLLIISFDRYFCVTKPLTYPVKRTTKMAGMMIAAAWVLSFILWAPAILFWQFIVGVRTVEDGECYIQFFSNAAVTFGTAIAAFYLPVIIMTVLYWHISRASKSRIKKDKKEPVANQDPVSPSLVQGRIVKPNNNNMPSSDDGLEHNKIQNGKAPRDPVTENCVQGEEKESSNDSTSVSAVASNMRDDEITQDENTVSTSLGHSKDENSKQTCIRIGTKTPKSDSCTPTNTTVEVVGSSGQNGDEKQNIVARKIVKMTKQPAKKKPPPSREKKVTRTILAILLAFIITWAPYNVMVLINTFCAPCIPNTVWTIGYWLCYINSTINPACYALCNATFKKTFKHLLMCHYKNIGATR

[4] = target: M3 muscarinic receptor (Homo sapiens, UniProt P20309); assay: R-SAT functional receptor assay, M3; settings: for Emax: read-out: % Efficacy M3
[5] = target: T2, M4 muscarinic receptor; settings: R-SAT; relative to full agonist carbachol; ± standard deviation
[6] = test system: hippocampal MAP kinase (MAPK) activity in CA1 pyramidal neurons; assay: hippocampal MAP kinase activation assay after parenteral administration; format: in vivo, C57BL6 mice
[7] = target: T4, human M1 muscarinic receptors (Homo sapiens, UniProt P11229); settings: R-SAT; relative to full agonist carbachol; ± standard deviation
[8] = target: T4, human M1 muscarinic receptors; settings: PI hydrolysis; ± standard deviation
[9] = target: T4, human M1 muscarinic receptors; assay: cell-based; settings: ± standard deviation
[10] = target: T4, human M1 muscarinic receptors; assay: cell-based

Sequence of M3 muscarinic receptor (P20309 whole entry): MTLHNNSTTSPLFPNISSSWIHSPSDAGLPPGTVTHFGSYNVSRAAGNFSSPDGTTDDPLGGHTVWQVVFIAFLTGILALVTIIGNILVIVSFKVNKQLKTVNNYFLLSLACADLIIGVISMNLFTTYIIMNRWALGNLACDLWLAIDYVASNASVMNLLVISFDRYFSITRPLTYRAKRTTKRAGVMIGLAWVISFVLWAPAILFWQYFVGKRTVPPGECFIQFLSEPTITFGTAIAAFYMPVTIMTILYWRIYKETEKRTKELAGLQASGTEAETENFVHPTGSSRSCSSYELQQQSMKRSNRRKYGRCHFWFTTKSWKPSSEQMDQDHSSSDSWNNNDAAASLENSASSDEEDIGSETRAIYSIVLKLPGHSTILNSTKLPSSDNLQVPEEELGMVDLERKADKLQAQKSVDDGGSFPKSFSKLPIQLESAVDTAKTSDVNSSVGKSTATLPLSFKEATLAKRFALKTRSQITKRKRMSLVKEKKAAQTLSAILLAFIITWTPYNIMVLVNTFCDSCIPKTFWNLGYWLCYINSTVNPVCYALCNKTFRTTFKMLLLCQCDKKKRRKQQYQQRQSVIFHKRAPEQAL
T4 sequence (P11229 whole entry): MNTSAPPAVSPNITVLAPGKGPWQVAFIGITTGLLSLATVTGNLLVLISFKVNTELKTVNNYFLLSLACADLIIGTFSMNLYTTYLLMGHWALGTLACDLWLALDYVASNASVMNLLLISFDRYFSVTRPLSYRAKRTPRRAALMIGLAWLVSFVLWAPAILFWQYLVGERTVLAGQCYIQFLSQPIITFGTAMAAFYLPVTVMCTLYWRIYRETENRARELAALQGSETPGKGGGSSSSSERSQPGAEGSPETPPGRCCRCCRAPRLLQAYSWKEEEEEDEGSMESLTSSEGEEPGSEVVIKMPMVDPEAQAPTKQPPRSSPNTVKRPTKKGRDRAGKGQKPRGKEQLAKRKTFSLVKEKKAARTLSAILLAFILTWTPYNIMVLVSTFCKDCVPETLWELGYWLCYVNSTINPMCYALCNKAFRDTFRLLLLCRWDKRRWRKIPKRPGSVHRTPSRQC

| SMILES | Emax [1] [%] | Emax [2] [%] | Emax [3] [%] | Emax [4] [%] | % Efficacy M5 ([1]; R-SAT, ± standard deviation) | other results |
| --- | --- | --- | --- | --- | --- | --- |
| CCCCCCOc1nsnc1C1=CCCN(C)C1 [Xanomeline] | 86 ± 12 | 116 ± 9 | 106 ± 9 | 66 ± 6 |  |  |
| C[N+](C)(C)CCOC(N)=O [Carbachol, carbachol] | 105 ± 3 | 96 ± 3 |  |  |  |  |
| CN1CCN(C2=Nc3cc(Cl)ccc3Nc3ccccc32)CC1 [Clozapine, clozapine] |  | 49 ± 6 | 57 ± 4 |  | no response |  |
| Cc1cc2c(s1)Nc1ccccc1N=C2N1CCN(C)CC1 [Olanzapine, olanzapine] |  |  |  |  | no response | % Efficacy M4 [5]: no response; % Efficacy M2 ([3]; R-SAT, relative to full agonist carbachol, ± standard deviation): no response |
| Clc1ccc2c(c1)N=C(N1CCNCC1)c1ccccc1N2 [N-desmethylclozapine, 8-chloro-11-(1-piperazinyl)-5H-dibenzo[b,e][1,4]diazepine] | 66 ± 4 | 88 ± 3 | 78 ± 7 | 19 ± 3 |  | EC50 ([1]; R-SAT, ± standard deviation, read-out: pEC50 M5 (converted)): 45.7 nM; blood brain barrier penetration ([6]; concluded from central MAPK activation after s.c. dosing): penetrates the blood brain barrier; MAPK activation in hippocampus ([6]; s.c., dose of 30 mg/kg): Robust activation; phospho-MAPK immunoreactivity in CA1 pyramidal neurons ([6]; s.c., immunohistochemistry, compared to vehicle or clozapine treatment): increased phospho-MAPK immunoreactivity; % Efficacy M1 [7]: 61 ± 5%; pEC50 M1 [8]: 7.01 ± 0.06; EC50 ([9]; pEC50 M1, R-SAT): 63.1 nM and 60.3 nM; Emax ([9]; read-out: % Efficacy M1, R-SAT, relative to full agonist carbachol): 65%; EC50 [10]: 100 nM; Emax ([10]; read-out: % Efficacy M1, PI hydrolysis, relative to full agonist carbachol, ± standard deviation): > 65%; EC50 [3]: 182 nM; EC50 [4]: 129 nM |
